Key:
Daphnia magna = conditions: chronic/long-term; duration: 21 days; reproduction
Canidae = conditions: subchronic; duration: 90 days; oral; Dog Other; neurology
Tagia sp. = conditions: chronic/long-term; duration: 56 days
Colinus virginianus = conditions: reproduction developmental; duration: 21 weeks; oral; diet; reproduction
Poecilus cupreus = conditions: not reported; mortality
Rattus norvegicus = conditions: for NOAEL: neurology
Oncorhynchus mykiss = conditions: chronic/long-term; duration: 21 days; mortality

## CCCSP(=O)(OCC)SCCC [Ethoprop]
Daphnia magna
  NOEC: 0.002 mg/L
Canidae
  NOAEL: 0.1 mg/kg-day
Tagia sp.
  NOEC: < 1.67 mg/kg
Colinus virginianus
  NOEC: < 0.6 mg/kg-day
Poecilus cupreus
  LEL: 7000 g/ha
Rattus norvegicus; acute, oral
  NOAEL: 1 mg/kg-day
Rattus norvegicus; chronic, duration: 2 years
  NOAEL: 0.04 mg/kg-day
Rattus norvegicus; reproduction developmental, reproduction
  NOEL: 1.3 mg/kg-day
Rattus norvegicus; short-term, duration: 28 days, oral
  NOAEL: 0.1 mg/kg-day
Oncorhynchus mykiss
  NOEC: 0.064 mg/L
